Test results taken from US6635030B1 (B.H.B. LLC, priority 1999, dated 2003).

Assay: Empiric porcine aortic contrast enhancement, dynamic CT after i.v. contrast injection
Format: in vivo, pig
Experimental: In order to test the mathematical solutions, a porcine study was conducted. All animal care and procedures performed were approved by the Institutional Animal Study Committee. […] Each session was separated by at least two days. Two pigs had all their sessions within a week, while the other two pigs had their first two and last sessions delays 4-5 weeks, which results in an increase in their weight to 35-40 kg in their last session. In each session, the pig was anesthetized, intubated, and underwent scanning for three or four sets of images obtained in random order. During scanning, each pig was ventilated with oxygen and low tidal volume to minimize breathing motion artifact. […] Each set of scans were 45-60 minutes apart to minimize the effect of prior contrast administration. All CT scanning was performed with a Somatom Plus-S scanner (Siemens Medical Systems, […].) using a one-second scanning time and a one-second interscan delay. Three types of injection schemes were tested: uniphasic, biphasic, and multiphasic. Biphasic injections were performed by a prior art power injector which was used in routine clinical CT scanning while uniphasic and multiphasic injections were conducted with a power injector which was invented for achieving the required protocols. This power injector was capable of delivering contrast medium in various uniphasic or multiphasic injection algorithms, as is explained in greater detail below. The multiphasic injection rate is determined by an initial injection rate and an exponential decay coefficient, as shown in FIG. 3. […] Most injections were performed with the initial injection rate of 2 mL/s. […] Three differential exponential decay coefficients (0.007, 0.017, 0.026) were tested. […] These were the three smallest discrete increments allowed in the prototype of the inventive power injector. Decay coefficient higher than 0.03 was not used because it was evident that a further increase in the coefficient would deviate further away from uniform vascular enhancements. A uniphasic injection was determined as being equivalent to a zero exponential decay coefficient where the injection rate remains constant at an initial injection rate throughout the injection duration. […] Approximately half of the total contrast volume was injected in each phase of the biphasic injections. […] Attenuation values of the aorta were measured from post-contrast scans (at the same level as the pre-contrast scans) using a circular region of interest (ROI) at the center of the aorta. Contrast enhancement was calculated as the absolute different in attenuation value between the pre- and post-contrast scans. […] Means and standard deviations were also computed. The results are now explained.

[1] = 25 kg pig, 50 mL of 282 mgI/mL contrast medium, uniphasic 2 mL/sec
[2] = four pigs, 50 mL, 2 mL/s initial injection rate, decay constant 0.017
[3] = four pigs, 70 mL, 2 mL/s initial injection rate, decay constant 0.017

In the case of `CNC(=O)c1c(I)c(NC(C)=O)c(I)c(C(=O)O)c1I.CNC[C@H](O)[C@@H](O)[C@H](O)[C@H](O)CO` [contrast medium, iothalmate meglumine], the “magnitude of the peak aortic enhancement (empiric)” value [1] is reported as 250 HU, the “time to the peak aortic enhancement (empiric)” value [1] is reported as 26 s and the “increase of duration of enhancement within 90% of the peak (90%DCE), multiphasic vs uniphasic injection, mean” value [2] is reported as 81%. For the same compound, the “reduction of peak aortic enhancement (PA), multiphasic vs uniphasic injection, mean” value [2] was 19%, the “decrease of peak aortic enhancement (PA), multiphasic vs uniphasic injection” value [3] was 18% and the “increase of duration of enhancement within 90% of the peak (90%DCE), multiphasic vs uniphasic injection” value [3] was 94%.
